From PubChem BioAssay (NCI)
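All cell lines were grown in 96-well plates and treated with compound for 48 hours. Here, GI50 denotes the concentration required for 50% inhibition of growth. TGI: total growth inhibition.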

Key:
Assay in all cases: DTP human tumour cell line panel, 48 h
[1] = tested on: PC-3 prostate
[2] = tested on: NCI/ADR-RES ovarian
[3] = tested on: A549 NSCLC
[4] = tested on: OVCAR-8 ovarian
[5] = tested on: NCI-H226 lung
[6] = tested on: 786-0 renal
[7] = tested on: CAKI-1 renal
[8] = tested on: SNB-75 CNS
[9] = tested on: MALME-3M melanoma
[10] = tested on: SW-620 colon
[11] = tested on: OVCAR-5 ovarian
[12] = tested on: SF-295 CNS
[13] = tested on: SN12C renal
[14] = tested on: HCT-116 colon
[15] = tested on: IGROV1 ovarian
[16] = tested on: MDA-MB-435
[17] = tested on: SK-OV-3 ovarian
[18] = tested on: HT29 colon
[19] = tested on: HOP-92 NSCLC
[20] = tested on: TK-10 renal
[21] = tested on: MDA-MB-231 breast
[22] = tested on: NCI-H23 lung
[23] = tested on: OVCAR-3 ovarian
[24] = tested on: MCF7 breast
[25] = tested on: K-562 leukemia
[26] = tested on: SK-MEL-2 melanoma
[27] = tested on: HCC-2998 colon
[28] = tested on: UO-31 renal
[29] = tested on: MOLT-4 leukemia
[30] = tested on: HCT-15 colon
[31] = tested on: A498 renal
[32] = tested on: KM12 colon
[33] = tested on: HOP-62 NSCLC
[34] = tested on: LOX IMVI melanoma
[35] = tested on: COLO 205 colon
[36] = tested on: SK-MEL-28 melanoma
[37] = tested on: NCI-H522 lung
[38] = tested on: SNB-19 CNS
[39] = tested on: M14 melanoma
[40] = tested on: RPMI-8226 leukemia
[41] = tested on: HL-60(TB) leukemia
[42] = tested on: CCRF-CEM leukemia
[43] = tested on: T-47D breast
[44] = tested on: UACC-257 melanoma
[45] = tested on: SF-539 CNS
[46] = tested on: RXF 393 renal
[47] = tested on: ACHN renal
[48] = tested on: HS 578T breast
[49] = tested on: OVCAR-4 ovarian
[50] = tested on: EKVX NSCLC
[51] = tested on: DU-145 prostate
[52] = tested on: BT-549 breast
[53] = tested on: NCI-H460 lung
[54] = tested on: SF-268 CNS
[55] = tested on: U251 CNS
[56] = tested on: SK-MEL-5 melanoma
[57] = tested on: UACC-62 melanoma
[58] = tested on: SR leukemia

COc1cccc2c1C(=O)c1c(O)c3c(c(O)c1C2=O)CC(O)(/C(C)=N/NC(=O)CCC(=O)N/N=C(\C)C1(O)Cc2c(O)c4c(c(O)c2C(OC2CC(N)C(O)C(C)O2)C1)C(=O)c1c(OC)cccc1C4=O)CC3OC1CC(N)C(O)C(C)O1 (configuration not stated)
GI50 [1]: 0.958 µM
TGI [1]: > 21.2 µM
GI50 [2]: 13.5 µM
TGI [2]: > 50 µM
GI50 [3]: 0.414 µM
TGI [3]: 1.81 µM
GI50 [4]: 0.306 µM
TGI [4]: > 50 µM
GI50 [5]: 0.324 µM
TGI [5]: 1.39 µM
GI50 [6]: 0.182 µM
TGI [6]: 1.06 µM
GI50 [7]: 0.895 µM
TGI [7]: 17.7 µM
GI50 [8]: 0.222 µM
TGI [8]: 2.01 µM
GI50 [9]: 0.285 µM
TGI [9]: 1.12 µM
GI50 [10]: 0.193 µM
TGI [10]: 5.36 µM
GI50 [11]: 1.02 µM
TGI [11]: 3.68 µM
GI50 [12]: 0.42 µM
TGI [12]: 6.51 µM
GI50 [13]: 0.234 µM
TGI [13]: > 50 µM
GI50 [14]: 0.147 µM
TGI [14]: 0.914 µM
GI50 [15]: 0.108 µM
TGI [15]: 1.08 µM
GI50 [16]: 0.552 µM
TGI [16]: 3.29 µM
GI50 [17]: 0.475 µM
TGI [17]: 2.4 µM
GI50 [18]: 0.333 µM
TGI [18]: > 10.5 µM
GI50 [19]: 0.438 µM
GI50 [20]: 0.574 µM
TGI [20]: 6.69 µM
GI50 [21]: 1.17 µM
TGI [21]: > 50 µM
GI50 [22]: 0.186 µM
TGI [22]: 1.43 µM
GI50 [23]: 0.259 µM
TGI [23]: 2.66 µM
GI50 [24]: 0.0676 µM
TGI [24]: 7.41 µM
GI50 [25]: 0.341 µM
TGI [25]: 7.69 µM
GI50 [26]: 0.111 µM
TGI [26]: 0.343 µM
GI50 [27]: 0.508 µM
TGI [27]: 1.46 µM
GI50 [28]: 0.158 µM
TGI [28]: 1.09 µM
GI50 [29]: 0.142 µM
GI50 [30]: 3.51 µM
TGI [30]: > 50 µM
GI50 [31]: 0.161 µM
TGI [31]: 0.939 µM
GI50 [32]: 0.755 µM
TGI [32]: > 14.5 µM
GI50 [33]: 0.19 µM
TGI [33]: 1.57 µM
GI50 [34]: 0.126 µM
TGI [34]: 1.05 µM
GI50 [35]: 0.157 µM
TGI [35]: 0.795 µM
GI50 [36]: 0.371 µM
TGI [36]: 1.35 µM
GI50 [37]: 0.0503 µM
TGI [37]: 0.327 µM
GI50 [38]: 0.198 µM
TGI [38]: 1.38 µM
GI50 [39]: 0.292 µM
TGI [39]: 2.12 µM
GI50 [40]: 0.209 µM
TGI [40]: 4.17 µM
GI50 [41]: 0.397 µM
TGI [41]: 4.23 µM
GI50 [42]: 0.113 µM
TGI [42]: 7.17 µM
GI50 [43]: 0.172 µM
TGI [43]: 1.68 µM
GI50 [44]: 0.781 µM
TGI [44]: 3.28 µM
GI50 [45]: 0.179 µM
TGI [45]: 0.859 µM
GI50 [46]: 0.376 µM
TGI [46]: 1.35 µM
GI50 [47]: 0.277 µM
TGI [47]: 2.9 µM
GI50 [48]: 0.261 µM
TGI [48]: 2.3 µM
GI50 [49]: 0.885 µM
TGI [49]: > 21.4 µM
GI50 [50]: 1.12 µM
TGI [50]: 22.1 µM
GI50 [51]: 0.302 µM
TGI [51]: 2.97 µM
GI50 [52]: 0.671 µM
TGI [52]: 2.27 µM
GI50 [53]: 0.0981 µM
TGI [53]: 0.947 µM
GI50 [54]: 0.259 µM
TGI [54]: 8.11 µM

Cc1ccc(Cl)cc1Nc1nc(C(F)(F)F)ccc1C(=O)N1CCN(c2cccc(Cl)c2)CC1
GI50 [1]: 21.7 µM
TGI [1]: > 100 µM
GI50 [2]: > 100 µM
TGI [2]: > 100 µM
GI50 [3]: > 100 µM
TGI [3]: > 100 µM
GI50 [4]: > 100 µM
TGI [4]: > 100 µM
GI50 [5]: > 100 µM
TGI [5]: > 100 µM
GI50 [6]: > 100 µM
TGI [6]: > 100 µM
GI50 [7]: 26.4 µM
TGI [7]: > 100 µM
GI50 [8]: 73.8 µM
TGI [8]: > 100 µM
GI50 [9]: > 100 µM
TGI [9]: > 100 µM
GI50 [10]: > 100 µM
TGI [10]: > 100 µM
GI50 [55]: > 100 µM
TGI [55]: > 100 µM
GI50 [11]: > 100 µM
TGI [11]: > 100 µM
GI50 [12]: > 100 µM
TGI [12]: > 100 µM
GI50 [13]: > 100 µM
TGI [13]: > 100 µM
GI50 [14]: 37.9 µM
TGI [14]: > 100 µM
GI50 [15]: 39.2 µM
TGI [15]: > 100 µM
GI50 [16]: > 100 µM
TGI [16]: > 100 µM
GI50 [56]: > 100 µM
TGI [56]: > 100 µM
GI50 [17]: > 100 µM
TGI [17]: > 100 µM
GI50 [18]: > 100 µM
TGI [18]: > 100 µM
GI50 [57]: 69.4 µM
TGI [57]: > 100 µM
GI50 [20]: > 100 µM
TGI [20]: > 100 µM
GI50 [21]: 30.5 µM
TGI [21]: > 100 µM
GI50 [22]: > 100 µM
TGI [22]: > 100 µM
GI50 [23]: 8.27 µM
TGI [23]: > 100 µM
GI50 [24]: 47.9 µM
TGI [24]: > 100 µM
GI50 [25]: > 100 µM
TGI [25]: > 100 µM
GI50 [26]: > 100 µM
TGI [26]: > 100 µM
GI50 [27]: 17.8 µM
TGI [27]: > 100 µM
GI50 [28]: 24.8 µM
TGI [28]: > 100 µM
TGI [29]: > 100 µM
GI50 [30]: > 100 µM
TGI [30]: > 100 µM
GI50 [31]: 65.6 µM
TGI [31]: > 100 µM
GI50 [32]: > 100 µM
TGI [32]: > 100 µM
GI50 [33]: > 100 µM
TGI [33]: > 100 µM
GI50 [58]: 3.06 µM
TGI [58]: > 100 µM
GI50 [34]: > 100 µM
TGI [34]: > 100 µM
GI50 [35]: > 100 µM
TGI [35]: > 100 µM
GI50 [36]: > 100 µM
TGI [36]: > 100 µM
GI50 [37]: 89.7 µM
TGI [37]: > 100 µM
GI50 [38]: > 100 µM
TGI [38]: > 100 µM
GI50 [39]: > 100 µM
TGI [39]: > 100 µM
GI50 [40]: 33.2 µM
TGI [40]: > 100 µM
GI50 [41]: 94.4 µM
TGI [41]: > 100 µM
GI50 [42]: > 100 µM
TGI [42]: > 100 µM
GI50 [43]: 37.6 µM
TGI [43]: > 100 µM
GI50 [44]: > 100 µM
TGI [44]: > 100 µM
GI50 [45]: > 100 µM
TGI [45]: > 100 µM
GI50 [47]: > 100 µM
TGI [47]: > 100 µM
GI50 [48]: 47.9 µM
TGI [48]: > 100 µM
GI50 [49]: > 100 µM
TGI [49]: > 100 µM
GI50 [50]: 86.4 µM
TGI [50]: > 100 µM
GI50 [51]: > 100 µM
TGI [51]: > 100 µM
GI50 [52]: > 100 µM
TGI [52]: > 100 µM
GI50 [53]: 90.1 µM
TGI [53]: > 100 µM
GI50 [54]: > 100 µM
TGI [54]: > 100 µM
